Source: patent US20120283293A1, “Methods of neuroprotection involving Prostaglandin E2 EP4 (PGE2 EP4) receptor activation” (The Board of Trustees of the Leland Stanford Junior …, priority 2011, published 2012)

Columns and labels:
[1] = test system: Akt phosphorylation in BV-2 cells; assay: phospho-Akt quantitative Western (Ser473) and ELISA (Thr308) in LPS-treated BV-2 cells; format: cell-based, murine
Procedure: Nuclear and cytoplasmic fractions of BV-2 cells were prepared at several time points after treatment (0-120 minutes) using the nuclear extract kit from Active Motif (Carlsbad, Calif.). Briefly, cells were washed, collected in ice-cold PBS in the presence of phosphatase inhibitors, and centrifuged at 300×g for 5 min at 4° C. Cell pellets were resuspended in hypotonic buffer, treated with detergent, and centrifuged at 14,000×g for 30 sec at 4° C. After collection of the cytoplasmic fraction, nuclei were solubilized for 30 min in lysis buffer containing protease inhibitors. Lysates were centrifuged at 14,000×g for 30 min at 4° C. and supernatants were collected for NF-κB studies. To prepare whole cell lysates for phospho-Akt and phospho-IKK studies, cells were washed in ice-cold PBS and lysed in 20 mM Tris-HCl, pH 7.5, 150 mM NaCl, 1 mM Na2EDTA, 1 mM EGTA, 1% Triton, 2.5 mM sodium pyrophosphate, 1 mM β-glycerophosphate, 1 mM orthovanadate, 1 μg/ml leupeptin and 1 mM PMSF. Lysates were sonicated for 5 seconds, centrifuged at 14,000×g for 10 min at 4° C. and supernatants were collected for phospho-Akt and phospho-IKK studies. All protein concentrations were determined using the Bradford protein assay.
Western blot analysis. […] Immunoreactivity was detected using either sheep anti-rabbit or sheep anti-mouse HRP-conjugated secondary antibody (Amersham Biosciences, Arlington Heights, Ill.), followed by enhanced chemiluminescence (Pierce). Autoradiographic signals were quantified using NIH Image. […]
Measurements of phospho-Akt and total Akt were determined using the PathScan phospho-Akt (Thr308) and total Akt1 ELISA kits (Cell Signaling Technology, Danvers, Mass.). […]
In addition to its known Gas coupling to PKA, the EP4 receptor can signal via PI3K and Akt via a Gαi subunit (Fujino et al., 2002; Fujino & Regan, 2006). To further investigate whether EP4 signaling modulates PI3K/Akt pathway activity in LPS-stimulated BV-2 cells, levels of phospho-Akt were measured using quantitative Western analysis (phosphorylated Ser473 Akt; FIG. 3C) and ELISA (phosphorylated Thr308 Akt; FIG. 3D). […]

[2] = test system: PKA activity in BV-2 cells; assay: cAMP dependent protein kinase A (PKA) activity assay in BV-2 cells; format: cell-based, murine; conditions: AE1-329 100 nM alone or with LPS 100 ng/ml
Procedure: PKA activity was determined using the PKA kinase activity assay kit (Assay designs, Ann Arbor, Mich.). Cells were harvested 3 minutes after stimulation, and ELISA was carried out according to the manufacturer's instructions. Kinase activity was calculated as (sample absorbance—blank absorbance)/μg protein and normalized to the average value of vehicle.
Downstream signaling events for EP4, a […] receptor, were investigated in LPS treated BV-2 cells (see FIG. 3). […] The increase in PKA activity from EP4 receptor signaling was blocked with the PKA inhibitor H89 at doses of 5 μM and 10 μM (FIG. 3B).

COCc1ccccc1CC[C@H](O)/C=C/[C@H]1[C@H](O)CC(=O)[C@@H]1SCCCSCC(=O)O [AE1-329]
Akt phosphorylation, agonist alone ([1]; BV-2 cells, in the absence of LPS): did not alter Akt phosphorylation | phospho-Ser473 Akt signal (quantitative Western) ([1]; LPS (100 ng/ml) treated BV-2 cells, AE1-329 100 nM, over 60 minutes): significant attenuation | phospho-Thr308 Akt (ELISA, p-Akt/Akt) ([1]; LPS-treated BV-2 cells, AE1-329 100 nM, 60 minutes): significant decrease | PKA activity [2]: significantly increased
